Active and inactive are the calls of the source. The calls are words filed in the database; no cut-off is given here. *1 amine or outer side, *2 acyl side, *3 side chain or, on linkers, in order; H or OH if unused. Where a SMILES comes first, the peptide text is derived from it. Bridges are numbered along the chain shown (N, C = ends). CO = O=C([*:1])[*:2]
Assays:
Candida albicans = assay: Antimicrobial activity against Candida albicans NBRC0197 at 100 ug/ml by microplate reader assay; assay type: functional, organism-based; conditions: dose 100.0 µg/ml
P338 = assay: Cytotoxicity against mouse P388 cells at 100 uM incubated for 84 hrs by MTT assay; assay type: functional, cell-based
Staphylococcus aureus = assay: Antimicrobial activity against Staphylococcus aureus FDA209 JC-1 at 100 ug/ml incubated for 24 hrs by microplate reader assay; assay type: functional, organism-based; conditions: dose 100.0 µg/ml
[1] = tested on: Agrobacterium tumefaciens; assay: Antimicrobial activity against Rhizobium radiobacter NBRC14554 at 100 ug/ml incubated for 24 hrs by microplate reader assay; assay type: functional, organism-based; conditions: dose 100.0 µg/ml
Trypanosoma cruzi = assay: Antitrypanosomal activity against Trypanosoma cruzi Tulahuen epimastigotes incubated for 24 hrs by cell titer glo luminescent assay; assay type: functional, organism-based
Ralstonia solanacearum = assay: Antimicrobial activity against Ralstonia solanacearum SUPP1541 at 100 ug/ml incubated for 24 hrs by microplate reader assay; assay type: functional, organism-based; conditions: dose 100.0 µg/ml
Escherichia coli = assay: Antimicrobial activity against Escherichia coli NIHJ JC-2 at 100 ug/ml incubated for 24 hrs by microplate reader assay; assay type: functional, organism-based; conditions: dose 100.0 µg/ml
Kocuria rhizophila = assay: Antimicrobial activity against Kocuria rhizophila ATCC9341 at 100 ug/ml incubated for 24 hrs by microplate reader assay; assay type: functional, organism-based; conditions: dose 100.0 µg/ml

CC[C@H](C)[C@@H]1NC(=O)[C@@H](NC(=O)[C@H](CC(C)C)NC(=O)N[C@@H](Cc2ccccc2)C(=O)O)Cc2cn(c3ccccc23)C(=O)[C@H](CC(C)C)NC(=O)[C@H](CCCNC(=N)N)NC1=O ({Phe-CO}-LWIRL; lactam 2-C)
Activity (Candida albicans): inactive
Activity (P338): inactive
Activity (Staphylococcus aureus): inactive
Activity [1]: inactive
IC50 (Trypanosoma cruzi): 4.1 µM
Activity (Ralstonia solanacearum): inactive
Activity (Escherichia coli): inactive
Activity (Kocuria rhizophila): inactive

O=C(Cn1ccnc1[N+](=O)[O-])NCc1ccccc1 [BENZNIDAZOLE]
IC50 (Trypanosoma cruzi): 20 µM

— ChEMBL document CHEMBL5257043, “Bulbiferamide, an Antitrypanosomal Hexapeptide Cyclized via an N-Acylindole Linkage from a Marine Obligate Microbulbifer” (J Nat Prod, 2023)
